“Also recorded” adds a separate entry of the source.
Columns and labels:
CRC [1] = test: Immunocompetent CRC mouse model; type: in vivo
Description: (§1) In colorectal carcinoma (CRC) patients, distant metastatic disease is present at initial diagnosis in nearly 25% of patients. The majority of patients with metastatic CRC have an incurable disease; therefore, new therapies are needed to address this cancer. […] ANTARTINA® is an antitumor agent isolated from Deschampsia antarctica Desv. In that study, the aim was to evaluate the antitumor properties of ANTARTINA® in CRC models. Human and murine CRC cell lines were employed to investigate proliferation, apoptosis, and cell cycle effects of ANTARTINA® therapy in vitro. Immune response of ANTARTINA® against cancer cells in the CRC model was also investigated using a cytotoxic T lymphocyte (CTL) assay, analyzing dendritic cell activation and intratumor T cell sub-population, and by tumor re-challenge experiments.

human CRC cell = test: In vitro human CRC cell proliferation; type: cell-based
Description: as §1

dendritic cell = test: Dendritic cell activation; type: cell-based
Description: as §1

CT26 cells [2] = test: Murine CRC model (CT26 cells) in BALB/c mice, combination with AdIL-12 gene therapy; type: in vivo, mouse; settings: mice with regression/mice in group; ANTARTINA 50 mg/kg 3 doses per week; AdIL12 10^9 TCID50 intratumorally, one dose at day 15
Description: Mouse CT26 cells (5×10^5) were subcutaneously inoculated on day 0. On day 7, when tumors reached a diameter of 5-7 mm, animals were divided into 4 groups: saline, ANTARTINA®, AdIL12, and the combination of ANTARTINA® and AdIL-12. Tumor volume is shown in the left panel vs. days after CT26 inoculation. Excised tumors are depicted in the right panel.
Adenovirus IL-12 constructs are as previously reported. (Mazzolini et al., Cancer Gene Therapy, 6(6):514-522, 1999).
This is a murine model of CRC (CT26 cells) established in BALB/c mice. Mouse CT26 cells (5×10^5) were subcutaneously inoculated on day 0. On day 7, when tumors reached a diameter of 5-7 mm, animals were divided into 4 groups: saline, ANTARTINA® 50 mg/kg, 3 doses per week (systemically), AdIL12 (adenovirus encoding murine IL-12, dose: 10^9 TCID50, intratumorally, one dose at day 15 after tumor inoculation), and the combination of ANTARTINA® and AdIL-12. Tumor volume was measured with a caliper 3 times per week. […] Complete tumor regressions: saline […], AdIL-12 1/5, Antartina 2/5, and combined therapy: 4/5. (FIG. 6).

CRC [3] = test: Cytotoxic T lymphocyte (CTL) assay; type: cell-based
Description: as §1

Hepa129 cells = test: Orthotopic hepatocellular carcinoma model associated with fibrosis, Hepa129 cells in C3H/He mice; type: in vivo, mouse; settings: 50 mg/kg, 3 times per week from day 5; quantified fifteen days after tumor implantation; vs saline
Method: On day 28, mice were anesthetized and orthotopic tumors were established by sub-capsular inoculation of 1.25×10^5 Hepa129 cells into the left liver lobe by laparotomy (day 0). Five days after tumor implantation, mice were distributed in groups (n=6-8/group) and received: i) saline (control, FIG. 5A, left panel); ii) acetylated ANTARTINA® (50 mg/kg, 3 times per week, FIG. 5A, right panel). Fifteen days after tumor implantation, mice were sacrificed and tumor volume was quantified, as depicted in FIG. 5B (control, left panel; acetylated ANTARTINA®, right panel).
Experimental model of HCC associated with fibrosis: C3H/He mice were treated intraperitoneally (i.p) with 200 mg/kg of thioacetamide (TAA) (Sigma-Aldrich, St. Louis, USA) 3 times a week for 4 weeks. On day 28, mice were anesthetized and orthotopic tumors were established by sub-capsular inoculation of 1.25×10^5 Hepa129 cells into the left liver lobe by laparotomy (day 0). Five days after tumor implantation, mice were distributed in groups (n=6-8/group) and received: i) saline (control); ii) acetylated ANTARTINA® (50 mg/kg, 3 times per week). (See, FIG. 5A). Fifteen days after tumor implantation, mice were sacrificed and tumor volume was quantified. (See, FIG. 5B).

CT26 cells [4] = test: Subcutaneous CRC model, CT26 cells in BALB/c mice; type: in vivo, mouse; settings: 50 mg/kg i.p., 3 times per week over 3 weeks; s.c. CT26 tumors in BALB/c mice; compared with ANTARTINA and tricin
Description: FIG. 4 depicts cell size (mm^3) in mice of CT26 tumors after CT26 cell line injection into mice. […] The bottom panel provides a summary of all results in one graph.
Mouse CT26 tumor cell line, an undifferentiated murine colorectal carcinoma (CRC) cell line established from N-nitroso-N-methylurethan-induced transplantable tumor in BALB/c (H-2d) mice, BNL cells (an hepatoma cell line) were used in the studies below and can be obtained from the University of Navarra, Spain. Human cell lines were from American Type Culture Collection (ATCC, Manassas, Va., US), including LoVo (ATCC-CCL229), ASG (ATCC-CCRL-79) and lung fibroblast Wi38 (ATCC-CCL75). All lines were tested for mycoplasma and cultured in complete DMEM (GIBCO, Themo Fisher Scientific, mM glutamine, 100 U/mL penicillin, […] streptomycin, and 10% heat inactivated fetal bovine serum (FBS, GIBCO, Thermo Fisher Scientific) and incubated 37° C. in 5% CO2.
Subcutaneous CRC model: Six-to-eight-week-old male BALB/c mice were used. CT26 cells were injected at a dose of 5×10^5 cells subcutaneously (s.c.) into the right flank of BALB/c mice (day 0). Tumors were allowed to reach ^˜90 mm^3 in size before treatment. […] Tumor growth was assessed by caliper measurement. Tumor volume was calculated using the following formula: tumor volume (mm^3)=length×(width) 2/2.

With `COc1cc(-c2cc(=O)c3c(O)cc(O[C@@H]4O[C@H](CO)[C@H](O)[C@H](O)[C@H]4O)cc3o2)cc(OC)c1O` (stereo in doubt) the melting point was 260.2 to 263.3 °C.
`COc1cc(-c2cc(=O)c3c(O)cc(O[C@@H]4O[C@H](CO)[C@@H](O[C@@H]5O[C@H](CO)[C@H](O)[C@H](O)[C@H]5O)[C@H](O)[C@H]4O)cc3o2)cc(OC)c1O` (stereo in doubt) gave a melting point of 275.4 to 279.2 °C.
Work on `COc1cc(-c2cc(=O)c3c(O)cc(O[C@@H]4O[C@H](CO)[C@@H](O[C@@H]5O[C@H](CO)[C@@H](O)[C@H](O)[C@H]5O)[C@H](O)[C@H]4O)cc3o2)cc(OC)c1O` (stereo in doubt) yielded a melting point of 243.2 to 246.5 °C.
`COc1cc(-c2cc(=O)c3c(O)cc(O[C@@H]4O[C@H](COC(C)=O)[C@H](OC(C)=O)[C@H](OC(C)=O)[C@H]4OC(C)=O)cc3o2)cc(OC)c1O` (stereo in doubt) showed a melting point of 117.2 to 121.8 °C.
For `COc1cc(-c2cc(=O)c3c(O)cc(O[C@@H]4O[C@H](CO)[C@@H](O)[C@H](O)[C@H]4O)cc3o2)cc(OC)c1O` [ANTARTINA®, tricin 7-O-β-D-glucopyranoside], the toxic effects (CRC [1]; at the doses employed) was “No toxic effects were observed”, the animal survival rate (CRC [1]; mouse, in vivo) was “increased” and the complete tumor regressions (CRC [1]; mouse, in vivo) was > 30 % of mice. The “tumor growth and liver metastases” value (CRC [1]; mouse, in vivo) was “potently inhibited”, the tumor immunogenicity (CRC [1]; mouse, in vivo) was “increased tumor immunogenicity” and the “antitumor immunity (tumor re-challenge)” value (CRC [1]; tumor re-challenge experiments) was “long lasting antitumor immunity”. For the same compound, the “in vitro human CRC cell proliferation” value (human CRC cell) was “inhibits”, the dendritic cell activation (dendritic cell) was “stimulated dendritic cell activation” and the complete tumor regressions (CT26 cells [2]) was 2/5. For the same compound, the “specific cytotoxic T cell response against CRC” value (CRC [3]) was “induced a potent specific cytotoxic T cell response”.
For `COc1cc(-c2cc(=O)c3c(OC(C)=O)cc(O[C@@H]4O[C@H](COC(C)=O)[C@@H](OC(C)=O)[C@H](OC(C)=O)[C@H]4OC(C)=O)cc3o2)cc(OC)c1OC(C)=O` [acetylated ANTARTINA®, Tricin 7-O-β-D-glucopyranoside, Per Acetylated], the tumor volume (Hepa129 cells) was “markedly reduced the tumor volume”, the melting point was 239.1 to 241.8 °C and the “tumor size (antitumoral effect)” value (CT26 cells [4]) was “superior antitumoral effect in comparison with native ANTARTINA®; also recorded: clearly and markedly reduced tumor size at a higher rate than observed for any of the other tested agents”.
